Measured values: US20140120190A1, “METHODS OF PREPARING PRICKLY-ASH PEEL EXTRACTS AND COSMETIC COMPOSITIONS INCORPORATING PRICKLY-ASH PEEL EXTRACTS” (priority 2012, published 2014)

Columns and labels:
[1] = tested on: skin; assay: Effects on skin at the tissue level (collagen, elastin, hair follicles, senile plaques)
[2] = tested on: NF-κB gene; assay: Blocking of NF-κB gene expression
[3] = Antioxidant effect
Text: At the same time, the molecular weight of gx-50 is so small that gx-50 is more easily absorbed via the skin.

SMILES: COc1ccc(CCNC(=O)/C=C/c2ccccc2)cc1OC [gx-50]
- loss of collagen and elastin in skin [1]: helps prevent the loss of collagen and elastin in skin
- expression of the NF-κB gene [2]: effectively blocks the expression of the NF-κB gene
- antioxidant effect [3]: possessing an antioxidant effect
